Source: ChEMBL document CHEMBL1201862, “PubChem BioAssay data set” (2004)
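Step 1: Grow cells in 96-well plates. Step 2: Expose to compound for 48 hours at 5 concentrations. Step 3: Interpolate endpoints linearly; if unreached, use highest concentration. GI50 = concentration required for 50% inhibition of growth.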 Activity calls are given as the source filed them. No stated cut-off is given here; in the data, active = GI50 up to about 1.1 µM and inactive = higher.

Legend:
Experiment in all cases: NCI-60 cell line screen, 48 h
A498 = tested on: A498
CCRF-CEM = tested on: CCRF-CEM
HOP-92 = tested on: HOP-92
HT-29 = tested on: HT-29
K562 = tested on: K562
KM12 = tested on: KM12
LOX IMVI = tested on: LOX IMVI
Malme-3M = tested on: Malme-3M
NCI-H226 = tested on: NCI-H226
NCI-H460 = tested on: NCI-H460
NCI-H522 = tested on: NCI-H522
OVCAR-3 = tested on: OVCAR-3
OVCAR-4 = tested on: OVCAR-4
OVCAR-8 = tested on: OVCAR-8
RXF 393 = tested on: RXF 393
SF-268 = tested on: SF-268
SK-MEL-2 = tested on: SK-MEL-2
SK-OV-3 = tested on: SK-OV-3
UACC-257 = tested on: UACC-257

| Structure (SMILES) | GI50 (A498) | GI50 (CCRF-CEM) | GI50 (HOP-92) | GI50 (HT-29) | GI50 (K562) | GI50 (KM12) | GI50 (LOX IMVI) | GI50 (Malme-3M) | GI50 (NCI-H226) | GI50 (NCI-H460) | GI50 (NCI-H522) | GI50 (OVCAR-3) | GI50 (OVCAR-4) | GI50 (OVCAR-8) | GI50 (RXF 393) | GI50 (SF-268) | GI50 (SK-MEL-2) | GI50 (SK-OV-3) | GI50 (UACC-257) |
| --- | --- | --- | --- | --- | --- | --- | --- | --- | --- | --- | --- | --- | --- | --- | --- | --- | --- | --- | --- |
| CCCCc1c2c(nc3c1CCC/C3=C\c1ccccc1)C(=O)CCC2 | 19.4 µM (inactive) | 17.4 µM (inactive) | 22 µM (inactive) | 15.5 µM (inactive) | 18.2 µM (inactive) | 18.7 µM (inactive) | 17.6 µM (inactive) | 26 µM (inactive) | 18.4 µM (inactive) | 34.2 µM (inactive) | 13.2 µM (inactive) | 15.1 µM (inactive) | 28.4 µM (inactive) | 24.5 µM (inactive) | 17 µM (inactive) | 21.3 µM (inactive) | 17.1 µM (inactive) | 24.8 µM (inactive) | 17 µM (inactive) |
| COc1cc(-c2cc(=O)c3ccccc3o2)ccc1N | 27.2 µM (inactive) | 40.6 µM (inactive) | 33.8 µM (inactive) | 52.8 µM (inactive) | 60.8 µM (inactive) | 39.3 µM (inactive) | 51.1 µM (inactive) | > 100 µM (inactive) | 15.2 µM (inactive) | 37.2 µM (inactive) | 20.5 µM (inactive) | 62.8 µM (inactive) | 54.5 µM (inactive) | 51.9 µM (inactive) | 41 µM (inactive) | 26.8 µM (inactive) | > 100 µM (inactive) | > 100 µM (inactive) | > 100 µM (inactive) |
| Cc1cc(Br)ccc1/N=N/C1C(=O)ON=C1c1ccccc1 (stereo not drawn) | 35 µM (inactive) | – | > 100 µM (inactive) | 47.1 µM (inactive) | 45 µM (inactive) | > 100 µM (inactive) | 63.4 µM (inactive) | > 100 µM (inactive) | > 100 µM (inactive) | 55 µM (inactive) | 40.6 µM (inactive) | > 100 µM (inactive) | > 100 µM (inactive) | > 100 µM (inactive) | 52.4 µM (inactive) | > 100 µM (inactive) | > 100 µM (inactive) | > 100 µM (inactive) | > 100 µM (inactive) |
| COC(=O)C(/C(=N/NC(N)=O)C(=O)Nc1c(C)cccc1C(C)(C)C)c1nc2ccc(Cl)cc2nc1O (stereo not drawn) | > 100 µM (inactive) | > 100 µM (inactive) | > 100 µM (inactive) | > 100 µM (inactive) | > 100 µM (inactive) | > 100 µM (inactive) | > 100 µM (inactive) | > 100 µM (inactive) | > 100 µM (inactive) | > 100 µM (inactive) | > 100 µM (inactive) | > 100 µM (inactive) | > 100 µM (inactive) | > 100 µM (inactive) | > 100 µM (inactive) | > 100 µM (inactive) | > 100 µM (inactive) | > 100 µM (inactive) | > 100 µM (inactive) |
| Cn1c(O)c(C(=O)Nc2cccs2)c(=O)[nH]c1=S | 19.9 µM (inactive) | 39 µM (inactive) | 12.6 µM (inactive) | 18.2 µM (inactive) | 51.9 µM (inactive) | 17.9 µM (inactive) | 15.7 µM (inactive) | 16.1 µM (inactive) | 14.5 µM (inactive) | 19.4 µM (inactive) | 13.5 µM (inactive) | 19.9 µM (inactive) | 22.5 µM (inactive) | 14 µM (inactive) | – | 18.8 µM (inactive) | 16.4 µM (inactive) | 16 µM (inactive) | 15.4 µM (inactive) |
| N#CC(Cl)CS(=O)(=O)c1ccccc1 (stereo not drawn) | 13.6 µM (inactive) | 0.628 µM (active) | 2.02 µM (inactive) | 7.66 µM (inactive) | 1.97 µM (inactive) | 17.5 µM (inactive) | 7.14 µM (inactive) | 2.07 µM (inactive) | 22.1 µM (inactive) | 18.6 µM (inactive) | 0.681 µM (active) | 2.71 µM (inactive) | 2.03 µM (inactive) | 6.7 µM (inactive) | 2.35 µM (inactive) | 11 µM (inactive) | 16.1 µM (inactive) | 19.5 µM (inactive) | 7.14 µM (inactive) |
| OCCNCO | > 100 µM (inactive) | > 100 µM (inactive) | > 100 µM (inactive) | > 100 µM (inactive) | > 100 µM (inactive) | > 100 µM (inactive) | > 100 µM (inactive) | – | > 100 µM (inactive) | > 100 µM (inactive) | > 100 µM (inactive) | > 100 µM (inactive) | > 100 µM (inactive) | > 100 µM (inactive) | > 100 µM (inactive) | > 100 µM (inactive) | > 100 µM (inactive) | > 100 µM (inactive) | > 100 µM (inactive) |
| CC(=O)n1c(=O)c2cc3c(=O)n(-c4cccc(C#N)c4)c(=O)c3cc2c1=O | > 100 µM (inactive) | > 100 µM (inactive) | 39.2 µM (inactive) | > 100 µM (inactive) | > 100 µM (inactive) | > 100 µM (inactive) | > 100 µM (inactive) | > 100 µM (inactive) | > 100 µM (inactive) | > 100 µM (inactive) | > 100 µM (inactive) | > 100 µM (inactive) | > 100 µM (inactive) | > 100 µM (inactive) | > 100 µM (inactive) | > 100 µM (inactive) | > 100 µM (inactive) | > 100 µM (inactive) | > 100 µM (inactive) |
| CS(=O)(=O)C1(Br)S(=O)(=O)OCCOS1(=O)=O | > 100 µM (inactive) | > 100 µM (inactive) | > 100 µM (inactive) | > 100 µM (inactive) | > 100 µM (inactive) | – | > 100 µM (inactive) | > 100 µM (inactive) | > 100 µM (inactive) | > 100 µM (inactive) | > 100 µM (inactive) | > 100 µM (inactive) | > 100 µM (inactive) | > 100 µM (inactive) | > 100 µM (inactive) | > 100 µM (inactive) | > 100 µM (inactive) | > 100 µM (inactive) | > 100 µM (inactive) |
| CSc1nc2nccnc2c(=O)[nH]1 | > 100 µM (inactive) | > 100 µM (inactive) | 96.2 µM (inactive) | > 100 µM (inactive) | > 100 µM (inactive) | – | > 100 µM (inactive) | > 100 µM (inactive) | > 100 µM (inactive) | > 100 µM (inactive) | > 100 µM (inactive) | – | > 100 µM (inactive) | > 100 µM (inactive) | > 100 µM (inactive) | > 100 µM (inactive) | > 100 µM (inactive) | > 100 µM (inactive) | > 100 µM (inactive) |
| COc1cc(-c2nn3c(=O)n(-c4ccc(Cl)cc4)c(=O)nc3s2)cc(OC)c1OC | > 67 µM (inactive) | > 100 µM (inactive) | 15.5 µM (inactive) | > 100 µM (inactive) | > 31.6 µM (inactive) | > 65.8 µM (inactive) | 18.5 µM (inactive) | 65.9 µM (inactive) | > 55.7 µM (inactive) | > 100 µM (inactive) | > 58.2 µM (inactive) | 54.5 µM (inactive) | 41.9 µM (inactive) | > 49.5 µM (inactive) | 8.87 µM (inactive) | > 50 µM (inactive) | 24.9 µM (inactive) | > 50 µM (inactive) | > 58.7 µM (inactive) |
| Cc1cc(C)n2c(-c3ccccc3)c(C)cc2n1 | 35.2 µM (inactive) | 1.09 µM (active) | 53.2 µM (inactive) | 25.8 µM (inactive) | 8.17 µM (inactive) | 60.8 µM (inactive) | 65 µM (inactive) | 49.4 µM (inactive) | 36.2 µM (inactive) | 37.3 µM (inactive) | 21.2 µM (inactive) | 25.6 µM (inactive) | 73.3 µM (inactive) | 49.1 µM (inactive) | 39.4 µM (inactive) | > 100 µM (inactive) | 15.3 µM (inactive) | 60.3 µM (inactive) | > 100 µM (inactive) |
| O=[N+]([O-])C1C2C=CC(C2)[C@H]1c1ccco1 (stereo partly drawn) | > 100 µM (inactive) | > 100 µM (inactive) | 0.259 µM (active) | 2.19 µM (inactive) | > 100 µM (inactive) | > 100 µM (inactive) | > 100 µM (inactive) | > 100 µM (inactive) | > 100 µM (inactive) | > 100 µM (inactive) | > 100 µM (inactive) | > 100 µM (inactive) | > 100 µM (inactive) | > 100 µM (inactive) | > 100 µM (inactive) | > 100 µM (inactive) | > 100 µM (inactive) | > 100 µM (inactive) | > 100 µM (inactive) |
| COc1ccc(-c2cc(=O)c3c(O)cccc3o2)c(OC)c1OC | 33 µM (inactive) | > 100 µM (inactive) | 19.9 µM (inactive) | > 100 µM (inactive) | 6.59 µM (inactive) | 40.6 µM (inactive) | 55.2 µM (inactive) | > 100 µM (inactive) | > 100 µM (inactive) | 80 µM (inactive) | > 100 µM (inactive) | > 100 µM (inactive) | 74.5 µM (inactive) | > 100 µM (inactive) | 20.2 µM (inactive) | > 100 µM (inactive) | 20.2 µM (inactive) | > 100 µM (inactive) | > 100 µM (inactive) |
| c1ccc(COc2ccc3[nH]c4c5c6ccccc6nc-5c[nH]c4c3c2)cc1 | 21.6 µM (inactive) | 11.4 µM (inactive) | 15.8 µM (inactive) | 5.47 µM (inactive) | 2.48 µM (inactive) | 14.7 µM (inactive) | 18.7 µM (inactive) | 13.5 µM (inactive) | 15.4 µM (inactive) | 18.6 µM (inactive) | 16.7 µM (inactive) | 15.9 µM (inactive) | – | 17.5 µM (inactive) | 11.2 µM (inactive) | 17 µM (inactive) | 16.9 µM (inactive) | 18.4 µM (inactive) | 18 µM (inactive) |
